The values below are quoted from earlier work in US10627374B2, “LC-MS configuration for purification and detection of analytes having a broad range of hydrophobicites” (COHESIVE TECHNOLOGIES INC., priority 2010, dated 2020).

Structures are written as SMILES. Like-named read-outs stand apart in the source and are kept apart here.

Take `O=c1[nH]cc(F)c(=O)[nH]1` [5-Fluorouracil]: the logP (Table 2) is reported as −0.9.

On to `CS(=O)(=O)OCCCCOS(C)(=O)=O` [Busulfan], for which the logP runs as follows: (Table 1) −1.15; (Table 2) −1.15.

As for `C[C@]12CCC(=O)C=C1CC[C@@H]1[C@@H]2[C@@H](O)C[C@@]2(C)[C@H]1CC[C@]2(O)C(=O)CO` [Cortisol (hydrocortisone)], the logP is 1.26 (Table 1) and 1.26 (Table 2).

Take `CO[C@H]1C[C@@H]2CC[C@@H](C)[C@@](O)(O2)C(=O)C(=O)N2CCCC[C@H]2C(=O)O[C@H]([C@H](C)C[C@@H]2CC[C@@H](OCCO)[C@H](OC)C2)CC(=O)[C@H](C)/C=C(\C)[C@@H](O)[C@@H](OC)C(=O)[C@H](C)C[C@H](C)/C=C/C=C/C=C/1C` [Everolimus]: the logP is given as 5.01 (Table 1) and 5.01 (Table 2). Under “approximate”, the “log P” value was “about 5.01”.

Regarding `CN(Cc1cnc2nc(N)nc(N)c2n1)c1ccc(C(=O)N[C@@H](CCC(=O)O)C(=O)O)cc1` [Methotrexate], the logP by setting is: (Table 1) 0.94; (Table 2) 0.94.

Regarding `C[C@]12C=CC(=O)C=C1CC[C@@H]1[C@@H]2C(=O)C[C@@]2(C)[C@H]1CC[C@]2(O)C(=O)CO` [Prednisone], the logP (Table 1) is given as 2.07 and the logP (Table 2) was 2.07.

On to `C=CC[C@@H]1/C=C(\C)C[C@H](C)C[C@H](OC)[C@H]2O[C@@](O)(C(=O)C(=O)N3CCCC[C@H]3C(=O)O[C@H](/C(C)=C/[C@@H]3CC[C@@H](O)[C@H](OC)C3)[C@H](C)[C@@H](O)CC1=O)[C@H](C)C[C@@H]2OC` [Tacrolimus], for which the logP is reported as 3.3 (Table 1) and 3.3 (Table 2).

In general, logP refers to a log measure of how a compound divides between an organic and an aqueous phase.
